Four compounds from US6800638B2, “Tetrahydropyridine derivatives, their preparation and their use as cell proliferation inhibitors” (Hoffman-La Roche Inc., priority 2000, dated 2004) can be followed below.

The structures appear in SMILES notation.

This test has as its system HDAC. Nature of the test: HDAC inhibition assay with aminocoumarin derivative of omega-acetylated lysine as substrate. The class given is biochemical. Conditions: compound concentration 10 nM; protocol of Hoffmann et al. 1999. As for the experimental part:
To determine the HDAC inhibitory properties of the compounds of the invention an assay was performed using an aminocoumarin derivative of an omega-acetylated lysine as substrate for the enzyme. This assay has been described in detail by Hoffmann, K., et al., Nucleic Acids Res. 27 (1999) 2057-2058. Using the protocol described therein, the inhibitory effect of representative compounds was determined at a concentration of 10 nM.
As to `CCOc1cc2c(cc1OCC)CN(CCCCCCCC(=O)NO)CC2` [Example 5, 8-(6,7-Diethoxy-3,4-dihydro-1H-isoquinolin-2-yl)-octanoic acid hydroxyamide], the “Inhibitory effect at 10 nM in %” value is listed as 26%. Regarding `O=C(CCCCCCCN1CCc2ccccc2C1)NO` [Example 1, 8-(3,4-Dihydro-1H-isoquinolin-2-yl)-octanoic acid hydroxyamide], the “Inhibitory effect at 10 nM in %” value was found to be 54%. On to `O=C(CCCCCCCN1CCc2c([nH]c3ccccc23)C1)NO` [Example 7, 8-(1,3,4,9-tetrahydro-β-carbolin-2-yl)-octanoic acid hydroxyamide], for which the “Inhibitory effect at 10 nM in %” value is recorded as 26%. To `COc1cc2c(cc1OC)C(c1ccccc1)N(CCCCCCCC(=O)NO)CC2` (stereo not shown) [Example 6, 8-(6,7-dimethoxy-1-phenyl-3,4-dihydro-1H-isoquinolin-2-yl)-octanoic acid hydroxyamide] belongs 26%.
